Test results as given in ChEMBL document CHEMBL1201862, “PubChem BioAssay data set” (2004).
Calls of active or inactive are those of the source.

Legend:
[1] = molecular target: Eukaryotic translation initiation factor 4E (Mus musculus, UniProt P63073); experiment: eIF4E–eIF4G protein interaction inhibitors, dose response, biochemical, TR-FRET (AID 855); format: functional;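 further: potency for disrupting eIF4E binding to eIF4GI seen as loss of FRET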
[2] = Vero E6 cell cytotoxicity, dose response, cytotoxicity control for non-replicating M. tuberculosis project, secondary assay (AID 492998); format: functional, VeroE6; conditions: Vero C1008
cells = format: functional
Streptokinase A = molecular target: T1, Streptokinase A (Streptococcus pyogenes serotype M1, UniProt P10520); experiment: S. pyogenes streptokinase expression inhibitors, potency, dose response, plasminogen activation absorbance, OD405 (AID 1914); format: functional, Streptococcus pyogenes M1 GAS;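 further: secreted streptokinase activity via plasminogen activation per viability signal from cell pellet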
T1 sequence (P10520 whole entry): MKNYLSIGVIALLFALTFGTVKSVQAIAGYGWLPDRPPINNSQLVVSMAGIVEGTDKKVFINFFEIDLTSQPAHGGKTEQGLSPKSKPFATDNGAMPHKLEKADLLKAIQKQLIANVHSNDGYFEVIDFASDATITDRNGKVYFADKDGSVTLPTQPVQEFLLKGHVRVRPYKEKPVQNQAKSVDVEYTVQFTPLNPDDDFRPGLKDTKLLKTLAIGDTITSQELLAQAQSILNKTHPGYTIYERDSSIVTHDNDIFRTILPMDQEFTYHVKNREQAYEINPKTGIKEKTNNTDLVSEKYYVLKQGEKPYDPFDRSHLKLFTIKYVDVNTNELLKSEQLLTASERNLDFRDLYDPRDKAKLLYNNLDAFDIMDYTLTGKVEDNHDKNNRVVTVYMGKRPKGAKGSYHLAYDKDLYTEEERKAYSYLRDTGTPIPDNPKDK

Streptococcus = experiment: Group A Streptococcus viability loss, dose response, counter-screen for streptokinase expression inhibitor project, luminescence, BacTiterGlo (AID 1915); format: functional, organism-based;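 further: potency for reduction of bacterial viability or growth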
[3] = test system: Streptococcus sp. 'group A'; experiment: growth inhibition of control SK(-) GAS strain, dose response, counter-screen for streptokinase expression inhibitor project, luminescence, kanamycin, BacTiterGlo, confirmation (AID 1900); format: functional, organism-based
Large T antigen = Large T antigen (Simian virus 40, UniProt P03070); format: functional, Betapolyomavirus macacae;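 further: Confirmatory-stage PubChem screen for compounds that inhibit SV40 T antigen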
[4] = inhibitors of SNCA 5'UTR-driven reporter translation, confirmation, H4 neuroglioma cells, luminescence (AID 1988); format: functional, cell-based
[5] = Luminescence Cell-Based Dose Retest to Confirm Inhibitors of Cancer Stem Cells. [Related pubchem assays (depositor defined):AID2717, AID2721]; format: functional; conditions: Homo sapiens
[6] = Luminescence Cell-Based Dose Response HTS to Identify Inhibitors of 5'UTR Stem-Loop Driven Prion Protein mRNA Translation in H4 Neuroglioblastoma Cells. [Related pubchem assays: 1827 (Project Summary), 1813 (Primary HTS)]; format: functional
Vero [7] = experiment: cells; format: functional; conditions: Chlorocebus sabaeus
[8] = inhibitors of firefly luciferase expression or activity, dose response, H4 neuroglioma cells, luminescence (AID 1990); format: functional, cell-based
[9] = molecular target: T2, Carboxy-terminal domain RNA polymerase II polypeptide A small phosphatase 1 (Homo sapiens, UniProt Q9GZU7); experiment: inhibitors of CTDSP1, concentration-response testing, biochemical assay, absorbance-based, actives from ultra-high-throughput screening (AID 540297); format: functional
T2 sequence (Q9GZU7 whole entry): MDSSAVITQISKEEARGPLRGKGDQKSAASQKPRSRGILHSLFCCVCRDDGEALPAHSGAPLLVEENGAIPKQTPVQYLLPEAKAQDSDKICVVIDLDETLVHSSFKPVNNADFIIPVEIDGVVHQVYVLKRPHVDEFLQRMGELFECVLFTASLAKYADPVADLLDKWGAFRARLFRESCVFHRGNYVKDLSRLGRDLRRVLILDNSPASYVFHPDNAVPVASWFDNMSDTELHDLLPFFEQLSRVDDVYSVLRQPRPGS

[10] = molecular target: T3, Heat shock factor protein 1 (Mus musculus, UniProt P38532); experiment: HSF1 potentiators in luciferase reporter cells, confirmation, cell-based, NIH3T3, luminescence, dose retest (AID 435004); format: functional;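 further: stress induced by proteasome inhibitor MG132 added 30 min after compound; luciferase reporter driven by HSF1 response element in NIH3T3 cells; actives raise luminescence as potentiators of the MG132 stress response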
T3 sequence (P38532 whole entry): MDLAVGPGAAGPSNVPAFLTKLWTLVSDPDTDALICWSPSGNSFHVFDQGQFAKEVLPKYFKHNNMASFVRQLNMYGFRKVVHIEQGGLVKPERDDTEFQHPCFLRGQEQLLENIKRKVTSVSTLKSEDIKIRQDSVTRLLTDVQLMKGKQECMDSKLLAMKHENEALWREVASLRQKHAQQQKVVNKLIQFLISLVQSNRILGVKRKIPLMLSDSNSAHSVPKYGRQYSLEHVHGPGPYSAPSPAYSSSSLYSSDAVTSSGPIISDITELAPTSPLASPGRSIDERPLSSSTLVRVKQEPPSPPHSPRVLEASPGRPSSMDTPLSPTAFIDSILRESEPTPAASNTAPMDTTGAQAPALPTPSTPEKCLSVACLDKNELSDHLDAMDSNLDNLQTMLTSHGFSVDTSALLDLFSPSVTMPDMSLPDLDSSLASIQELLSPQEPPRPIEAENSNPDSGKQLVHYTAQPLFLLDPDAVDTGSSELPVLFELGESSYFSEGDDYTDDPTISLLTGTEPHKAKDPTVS

[11] = THP-1 cell cytotoxicity, dose response, cytotoxicity control for non-replicating M. tuberculosis project (AID 489025); format: functional
[12] = molecular target: Glucose-6-phosphate 1-dehydrogenase (Homo sapiens, UniProt P11413); experiment: human G6PD enzyme inhibitors, dose response, selectivity assay for P. falciparum G6PD inhibitor project, biochemical, fluorescence (AID 504792); format: functional
[13] = molecular target: T4, Rac GTPase-activating protein 1 (Homo sapiens, UniProt Q9H0H5); experiment: MgcRacGAP GTPase-activating activity inhibitors, confirmation, biochemical, ADP Hunter fluorescence, primary and confirmatory (AID 624330); format: functional
T4 sequence (Q9H0H5 whole entry): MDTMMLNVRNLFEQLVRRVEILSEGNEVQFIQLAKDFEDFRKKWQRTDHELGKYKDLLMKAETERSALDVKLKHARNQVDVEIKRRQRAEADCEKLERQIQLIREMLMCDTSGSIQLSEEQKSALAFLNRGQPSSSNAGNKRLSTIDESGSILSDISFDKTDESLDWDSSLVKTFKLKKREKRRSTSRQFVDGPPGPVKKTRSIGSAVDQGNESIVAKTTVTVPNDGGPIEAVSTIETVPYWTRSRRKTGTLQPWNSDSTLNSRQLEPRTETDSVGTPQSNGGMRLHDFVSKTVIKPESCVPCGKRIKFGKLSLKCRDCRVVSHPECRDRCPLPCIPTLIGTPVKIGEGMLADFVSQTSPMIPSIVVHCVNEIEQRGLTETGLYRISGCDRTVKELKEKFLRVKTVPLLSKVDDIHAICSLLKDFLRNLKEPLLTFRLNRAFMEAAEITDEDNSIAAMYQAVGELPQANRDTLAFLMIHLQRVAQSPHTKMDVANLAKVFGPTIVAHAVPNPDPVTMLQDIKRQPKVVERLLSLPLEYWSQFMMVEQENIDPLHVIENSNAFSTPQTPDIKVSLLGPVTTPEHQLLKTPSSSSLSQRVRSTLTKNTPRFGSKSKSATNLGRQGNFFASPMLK

[14] = molecular target: Induced myeloid leukemia cell differentiation protein Mcl-1 (Homo sapiens, UniProt Q07820); format: functional
Prothrombin = Prothrombin (Bos taurus, UniProt P00735); experiment: thrombin inhibition, dose response, biochemical, fluorescence polarization, uHTS hits (AID 602369); format: functional
[15] = molecular target: 26S proteasome non-ATPase regulatory subunit 14 (Homo sapiens, UniProt O00487); experiment: inhibition of proteasome subunit RPN11 – biochemical, fluorescence polarization, uHTS hits, confirmation (AID 602368); format: functional
[16] = molecular target: 72 kDa type IV collagenase (Homo sapiens, UniProt P08253); experiment: Dose Response validation of uHTS RPN11 inhibitor hits using a MMP-2 Fluorescence assay.; format: functional
[17] = molecular target: FAD-linked sulfhydryl oxidase ALR (Homo sapiens, UniProt P55789); experiment: inhibitors of human ALR sulfhydryl oxidase, dose response, biochemical, H2O2 detection, luminescence, cherry-pick (AID 493248)
Cytochrome P450 2C9 = Cytochrome P450 2C9 (Homo sapiens, UniProt P11712)
Vero [18] = experiment: Vero cell cytotoxicity, cytotoxicity control for flavivirus capping enzyme inhibitors (AID 588742); format: functional; conditions: Chlorocebus sabaeus
[19] = molecular target: T5, Calpain-2 catalytic subunit (Sus scrofa, UniProt P43367); experiment: pig calpain II inhibitor potency, dose response, biochemical, fluorogenic peptide substrate (AID 1420); format: functional
T5 sequence (P43367 whole entry): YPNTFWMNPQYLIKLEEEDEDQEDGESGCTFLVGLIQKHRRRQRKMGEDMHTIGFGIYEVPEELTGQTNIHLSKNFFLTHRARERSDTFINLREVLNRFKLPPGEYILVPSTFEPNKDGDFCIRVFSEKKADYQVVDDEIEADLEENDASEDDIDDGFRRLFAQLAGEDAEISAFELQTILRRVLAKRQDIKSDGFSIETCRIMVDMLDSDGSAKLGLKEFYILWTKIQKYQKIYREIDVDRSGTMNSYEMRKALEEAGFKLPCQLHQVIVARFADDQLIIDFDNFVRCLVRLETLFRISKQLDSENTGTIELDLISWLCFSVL

[20] = molecular target: Voltage-dependent T-type calcium channel subunit alpha-1H (Homo sapiens, UniProt O95180); format: functional;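 further: channel activity triggered by adding a high calcium stimulation buffer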
Chain of Voltage-dependent T-type calcium channel subunit alpha-1H (O95180 whole entry): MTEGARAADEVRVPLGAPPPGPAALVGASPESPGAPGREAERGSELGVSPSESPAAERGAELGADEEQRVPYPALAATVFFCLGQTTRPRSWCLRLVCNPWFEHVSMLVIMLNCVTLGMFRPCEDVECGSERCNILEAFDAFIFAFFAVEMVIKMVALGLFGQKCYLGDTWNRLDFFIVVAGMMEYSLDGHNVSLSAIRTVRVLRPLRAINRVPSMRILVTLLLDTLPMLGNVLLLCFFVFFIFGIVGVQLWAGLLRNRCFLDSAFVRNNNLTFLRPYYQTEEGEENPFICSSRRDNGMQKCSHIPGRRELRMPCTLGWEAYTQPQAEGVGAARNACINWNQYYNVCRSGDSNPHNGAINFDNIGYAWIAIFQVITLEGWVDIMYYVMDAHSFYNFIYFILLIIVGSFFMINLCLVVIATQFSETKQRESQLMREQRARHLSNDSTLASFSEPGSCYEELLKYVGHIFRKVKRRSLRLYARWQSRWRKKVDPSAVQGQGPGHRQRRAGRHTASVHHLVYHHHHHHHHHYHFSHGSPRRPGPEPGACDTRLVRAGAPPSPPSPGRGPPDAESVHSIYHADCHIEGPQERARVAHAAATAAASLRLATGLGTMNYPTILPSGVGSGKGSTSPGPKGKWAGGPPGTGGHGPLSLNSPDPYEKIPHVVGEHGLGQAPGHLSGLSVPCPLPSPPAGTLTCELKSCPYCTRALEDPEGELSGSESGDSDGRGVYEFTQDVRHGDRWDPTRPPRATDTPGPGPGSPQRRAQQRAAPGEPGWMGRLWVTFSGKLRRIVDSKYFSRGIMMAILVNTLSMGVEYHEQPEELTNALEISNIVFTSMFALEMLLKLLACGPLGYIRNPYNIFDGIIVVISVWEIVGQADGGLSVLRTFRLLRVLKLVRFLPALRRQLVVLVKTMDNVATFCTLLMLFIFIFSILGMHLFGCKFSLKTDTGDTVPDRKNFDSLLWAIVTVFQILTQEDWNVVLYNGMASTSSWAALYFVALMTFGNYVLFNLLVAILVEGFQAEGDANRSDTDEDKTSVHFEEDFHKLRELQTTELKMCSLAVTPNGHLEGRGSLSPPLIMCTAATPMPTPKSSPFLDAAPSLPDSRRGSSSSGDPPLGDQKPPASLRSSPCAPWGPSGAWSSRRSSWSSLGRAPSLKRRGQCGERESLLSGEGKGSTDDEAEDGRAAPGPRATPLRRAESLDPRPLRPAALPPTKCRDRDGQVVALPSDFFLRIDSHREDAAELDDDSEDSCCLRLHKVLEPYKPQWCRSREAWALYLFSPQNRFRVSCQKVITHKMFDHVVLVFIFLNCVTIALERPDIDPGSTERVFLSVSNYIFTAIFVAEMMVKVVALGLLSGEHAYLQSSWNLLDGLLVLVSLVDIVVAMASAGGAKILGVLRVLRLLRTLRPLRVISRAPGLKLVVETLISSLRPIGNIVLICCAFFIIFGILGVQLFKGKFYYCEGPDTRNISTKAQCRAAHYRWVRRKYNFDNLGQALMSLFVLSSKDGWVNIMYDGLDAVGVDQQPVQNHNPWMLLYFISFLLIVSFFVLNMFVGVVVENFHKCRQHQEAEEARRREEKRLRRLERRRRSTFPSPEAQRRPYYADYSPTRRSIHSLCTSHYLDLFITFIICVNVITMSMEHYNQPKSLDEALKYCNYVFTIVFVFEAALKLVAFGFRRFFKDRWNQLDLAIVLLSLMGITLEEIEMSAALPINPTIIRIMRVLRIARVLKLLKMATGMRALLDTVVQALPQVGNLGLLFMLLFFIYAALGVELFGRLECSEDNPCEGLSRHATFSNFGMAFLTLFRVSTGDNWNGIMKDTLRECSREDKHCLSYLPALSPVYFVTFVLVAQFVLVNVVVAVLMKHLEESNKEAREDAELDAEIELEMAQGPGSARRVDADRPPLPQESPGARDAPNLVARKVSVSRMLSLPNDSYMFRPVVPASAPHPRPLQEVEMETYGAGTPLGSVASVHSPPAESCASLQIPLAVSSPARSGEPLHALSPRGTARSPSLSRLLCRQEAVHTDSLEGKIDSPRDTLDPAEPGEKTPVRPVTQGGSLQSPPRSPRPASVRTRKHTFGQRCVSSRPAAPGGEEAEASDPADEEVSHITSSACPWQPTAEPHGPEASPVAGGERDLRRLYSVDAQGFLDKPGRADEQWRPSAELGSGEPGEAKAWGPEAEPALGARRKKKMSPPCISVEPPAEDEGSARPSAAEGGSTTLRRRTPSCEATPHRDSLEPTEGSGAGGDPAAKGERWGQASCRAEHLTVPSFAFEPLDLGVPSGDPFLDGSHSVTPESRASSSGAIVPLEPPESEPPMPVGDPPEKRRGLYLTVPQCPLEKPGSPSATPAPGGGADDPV

Chain of Eukaryotic translation initiation factor 4E (P63073 whole entry): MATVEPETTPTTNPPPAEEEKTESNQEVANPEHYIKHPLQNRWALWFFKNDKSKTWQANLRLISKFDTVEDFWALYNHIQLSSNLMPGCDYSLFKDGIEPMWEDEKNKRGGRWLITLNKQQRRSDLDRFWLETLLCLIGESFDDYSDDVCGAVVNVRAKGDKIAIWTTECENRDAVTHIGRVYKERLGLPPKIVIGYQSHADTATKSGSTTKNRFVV
Chain of Large T antigen (P03070 whole entry): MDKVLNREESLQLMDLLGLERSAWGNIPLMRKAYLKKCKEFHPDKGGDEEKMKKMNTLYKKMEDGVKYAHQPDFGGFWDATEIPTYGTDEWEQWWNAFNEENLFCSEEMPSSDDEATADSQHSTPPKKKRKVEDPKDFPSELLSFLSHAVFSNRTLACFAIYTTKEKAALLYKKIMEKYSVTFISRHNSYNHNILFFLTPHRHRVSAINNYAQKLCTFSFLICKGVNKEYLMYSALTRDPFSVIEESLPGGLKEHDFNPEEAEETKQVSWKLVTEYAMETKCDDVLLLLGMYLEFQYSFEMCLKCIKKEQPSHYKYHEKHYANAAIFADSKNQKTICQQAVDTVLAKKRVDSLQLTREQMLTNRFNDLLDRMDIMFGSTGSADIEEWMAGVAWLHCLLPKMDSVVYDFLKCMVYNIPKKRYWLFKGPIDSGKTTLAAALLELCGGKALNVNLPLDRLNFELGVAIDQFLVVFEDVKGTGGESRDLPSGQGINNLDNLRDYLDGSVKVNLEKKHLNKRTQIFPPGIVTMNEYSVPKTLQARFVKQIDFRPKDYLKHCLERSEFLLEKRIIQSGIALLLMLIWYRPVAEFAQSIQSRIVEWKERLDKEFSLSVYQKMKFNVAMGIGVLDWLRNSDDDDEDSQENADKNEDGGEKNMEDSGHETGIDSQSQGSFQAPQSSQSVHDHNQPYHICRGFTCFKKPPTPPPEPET
Chain of Induced myeloid leukemia cell differentiation protein Mcl-1 (Q07820 whole entry): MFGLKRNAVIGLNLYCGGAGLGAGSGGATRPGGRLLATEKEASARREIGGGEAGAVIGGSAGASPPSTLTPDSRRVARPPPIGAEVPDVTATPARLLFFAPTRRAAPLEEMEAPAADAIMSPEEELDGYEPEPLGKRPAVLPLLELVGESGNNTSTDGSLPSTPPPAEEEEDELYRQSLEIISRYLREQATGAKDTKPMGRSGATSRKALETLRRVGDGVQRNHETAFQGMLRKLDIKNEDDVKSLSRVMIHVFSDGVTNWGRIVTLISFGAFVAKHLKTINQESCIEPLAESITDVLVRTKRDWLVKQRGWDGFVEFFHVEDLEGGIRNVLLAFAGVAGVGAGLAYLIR
Chain of Glucose-6-phosphate 1-dehydrogenase (P11413 whole entry): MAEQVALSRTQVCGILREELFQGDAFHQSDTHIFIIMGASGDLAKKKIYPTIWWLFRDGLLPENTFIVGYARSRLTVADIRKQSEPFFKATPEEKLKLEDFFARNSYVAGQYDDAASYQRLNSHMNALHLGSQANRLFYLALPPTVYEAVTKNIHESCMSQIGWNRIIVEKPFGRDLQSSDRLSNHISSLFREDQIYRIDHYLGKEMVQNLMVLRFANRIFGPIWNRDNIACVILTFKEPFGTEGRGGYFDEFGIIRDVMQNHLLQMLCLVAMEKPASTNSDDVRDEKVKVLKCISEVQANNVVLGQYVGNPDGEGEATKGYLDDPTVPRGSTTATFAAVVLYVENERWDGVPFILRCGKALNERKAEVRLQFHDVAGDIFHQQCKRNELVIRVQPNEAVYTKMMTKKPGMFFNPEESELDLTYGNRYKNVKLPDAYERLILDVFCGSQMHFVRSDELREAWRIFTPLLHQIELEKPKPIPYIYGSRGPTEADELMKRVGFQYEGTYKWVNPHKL
Chain of 72 kDa type IV collagenase (P08253 whole entry): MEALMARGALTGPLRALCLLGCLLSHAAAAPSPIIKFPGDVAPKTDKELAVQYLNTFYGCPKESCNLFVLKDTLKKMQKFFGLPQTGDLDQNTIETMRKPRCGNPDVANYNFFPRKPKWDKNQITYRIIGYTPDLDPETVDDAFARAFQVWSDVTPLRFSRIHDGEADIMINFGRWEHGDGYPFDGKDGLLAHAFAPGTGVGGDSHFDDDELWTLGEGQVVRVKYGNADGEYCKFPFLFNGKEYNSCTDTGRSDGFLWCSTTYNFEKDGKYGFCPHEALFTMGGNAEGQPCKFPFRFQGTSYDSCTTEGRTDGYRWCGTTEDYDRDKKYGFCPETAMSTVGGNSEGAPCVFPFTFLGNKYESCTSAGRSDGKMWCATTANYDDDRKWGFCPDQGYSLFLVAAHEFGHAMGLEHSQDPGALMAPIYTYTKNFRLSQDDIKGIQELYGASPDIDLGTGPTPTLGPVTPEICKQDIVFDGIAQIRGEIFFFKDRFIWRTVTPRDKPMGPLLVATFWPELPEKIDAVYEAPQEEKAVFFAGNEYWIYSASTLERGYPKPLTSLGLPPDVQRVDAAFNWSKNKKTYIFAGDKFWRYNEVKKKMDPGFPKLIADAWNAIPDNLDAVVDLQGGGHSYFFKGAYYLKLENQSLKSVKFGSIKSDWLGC
Chain of FAD-linked sulfhydryl oxidase ALR (P55789 whole entry): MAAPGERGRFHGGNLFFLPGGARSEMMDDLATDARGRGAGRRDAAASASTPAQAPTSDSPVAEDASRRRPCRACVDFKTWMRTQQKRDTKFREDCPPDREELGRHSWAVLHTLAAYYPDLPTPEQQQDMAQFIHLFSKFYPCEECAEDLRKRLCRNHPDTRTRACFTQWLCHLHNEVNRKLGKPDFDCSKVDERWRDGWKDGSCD

With `Cc1cccc(-c2nnc(SCC3CNC(=O)O3)n2-c2ccc(Cl)cc2)c1` (stereo not drawn) the IC50 [1] was > 64 µM (inactive).
In the case of `O=C(Nc1nccs1)c1sc2ccccc2c1Cl`, the CC50 [2] is reported as > 20 µM (active), the IC50 (cells) is reported as 20.5 µM (active) and the EC50 (Streptokinase A) is reported as > 150 µM (not active). The EC50 (Streptococcus) was > 150 µM (not active) and the EC50 [3] was 18.4 µM (active).
For `CCCCN1C(=O)/C(=C(/C#N)C(N)=O)c2ccccc21`, the IC50 (Large T antigen) was 60.5 µM (active).
For `COc1ccc(CCn2c(C3CCCCC3)nc3c(c(=O)c4ccccc4n3C)c2=O)cc1`, the EC50 [4] was 17.1 µM (active), the AC50 [5] was 2.4 µM (active) and the EC50 [6] was 0.438 µM (active). The CC50 (Vero [7]) was 9.23 µM (active) and the EC50 [8] was > 120 µM (not active).
With `CC[N+]1=CN(c2ccccc2)C(C)=CC1(C)C` the IC50 [9] was 6.23 µM (active).
For `CC1(C)CC(=O)C2=C(C1)OC(N)=C(C#N)C2C#Cc1ccccc1` (stereo not drawn), the EC50 [10] was 38.3 µM (active) and the CC50 [11] was 38.4 µM (active).
In the case of `Cc1cc(OCC[N+]2(C)CCCCC2)nc2ccccc12`, the IC50 [9] is reported as 3.69 µM (active).
In the case of `O=C(c1ccc2ccccc2c1)N1CCN(c2ccc(O)cc2)CC1`, the IC50 (Large T antigen) is reported as 9.84 µM (active).
In the case of `O=C1NC(=S)N(Cc2ccco2)C(=O)/C1=C\c1cccs1`, the IC50 [1] is reported as 9.49 µM (active).
For `CC(=O)c1cccc(NC(=O)c2cnn(-c3ccccc3)c2C)c1`, the IC50 [12] was > 80 µM (inactive).
For `O=C(CNC1CCCC1)Nc1ccc(N2CCCCCC2)cc1`, the CC50 [2] was 18.1 µM (active), the IC50 (cells) was 17.8 µM (active) and the IC50 [13] was 75.8 µM (active).
For `O=[N+]([O-])C(=c1ccc2c(c1)N1C3=C(CCCC3)CC3CCCCC31N=2)[N+](=O)[O-]` (stereo not drawn), the IC50 [14] was 1.95 µM (active).
With `O=C(O)c1ccc(COc2ccccc2/C=C2/NC(=O)N(c3cccc(Cl)c3)C2=O)cc1` the IC50 (Prothrombin) was > 100 µM (inactive), the IC50 [15] was 18.7 µM (active) and the IC50 [16] was 15.6 µM (active). The IC50 [9] was 2.75 µM (active).
For `N#Cc1ccc(-c2csc(NC3=NCCCCC3)n2)cc1`, the IC50 [1] was > 64 µM (inactive).
For `CCN(CC)c1ccc(NC(=O)c2cccc(F)c2)c(C)c1`, the AC50 [17] was 1.19 µM (active), the IC50 (Large T antigen) was 28.3 µM (active) and the AC50 (Cytochrome P450 2C9) was “inconclusive”. The CC50 (Vero [18]) was > 40 µM (active).
With `Cc1ccc2oc(=O)n(Cc3ccccc3OC(C)C)c2c1` the IC50 [19] was > 50 µM (not active) and the EC50 [20] was 8.57 µM (active).
For `O=C1CSC(=S)N1/N=C/c1ccc(O)c([N+](=O)[O-])c1`, the IC50 [14] was 6.99 µM (active) and the IC50 (Large T antigen) was 26.8 µM (active).
For `COc1cc(/C=N\Nc2cc(=O)n(C)c(=O)n2C)ccc1O`, the IC50 (Large T antigen) was 23.7 µM (active) and the IC50 [13] was 33.7 µM (active).
